Laboratory results from patent US7414066B2, “Amide compounds and medications containing the same technical field” (Kowa Company Ltd., priority 1999, dated 2008).

SMILES	melting point
CSc1nccc(C)c1NC(=O)CCCCCSc1nc2ccccc2o1 [Compound No. 155, 6-(benzoxazol-2-ylthio)-N-(4-methyl-2-methylthio-3-pyridyl)hexanamide]	122 to 124 °C
CSc1nc(C)ccc1NC(=O)CSc1nc2ccccc2s1 [Compound No. 461, 2-(benzothiazol-2-ylthio)-N-(6-methyl-2-methylthio-3-pyridyl)acetamide]	175 to 176 °C
CSc1nc(C)ccc1NC(=O)CSc1nc2ccccc2[nH]1 [Compound No. 471, 2-(benzimidazol-2-ylthio)-N-(6-methyl-2-methylthio-3-pyridyl)acetamide]	192 to 193 °C (dec.)
CSc1cc(C)nc(SC)c1NC(=O)CCCCSc1nc2ccccc2o1 [Compound No. 784, 5-(benzoxazol-2-ylthio)-N-(2,4-bis(methylthio)-6-methyl-3-pyridyl)pentanamide]	147 to 150 °C
CSc1cc(C)nc(SC)c1NC(=O)CCCCCCSc1nc2ccccc2o1 [Compound No. 786, 7-(benzoxazol-2-ylthio)-N-[2,4-bis(methylthio)-6-methyl-3-pyridyl]heptanamide]	137 to 139 °C
CSc1cc(C)nc(SC)c1NC(=O)CCCCCCCSc1nc2ccccc2o1 [Compound No. 787, 8-(benzoxazol-2-ylthio)-N-[2,4-bis(methylthio)-6-methyl-3-pyridyl]octanamide]	119 to 122 °C
CSc1cc(C)nc(SC)c1NC(=O)CSc1nc2ccccc2s1 [Compound No. 791, 2-(benzothiazol-2-ylthio)-N-[2,4-bis(methylthio)-6-methyl-3-pyridyl)acetamide]	178 to 179 °C
CSc1cc(C)nc(SC)c1NC(=O)CCCCSc1nc2ccccc2[nH]1 [Compound No. 804, 5-(benzimidazol-2-ylthio)-N-[2,4-bis(methylthio)-6-methyl-3-pyridyl]pentanamide]	176 to 177 °C
CSc1cc(C)nc(SC)c1NC(=O)CCCCCCSc1nc2ccccc2[nH]1 [Compound No. 806, 7-(benzimidazol-2-ylthio)-N-[2,4-bis(methylthio)-6-methyl-3-pyridyl]heptanamide]	189 to 192 °C
CSc1cc(C)nc(SC)c1NC(=O)CCCCCCCSc1nc2ccccc2[nH]1 [Compound No. 807, 8-(benzimidazol-2-ylthio)-N-[2,4-bis(methylthio)-6-methyl-3-pyridyl]octanamide]	186 to 187 °C
CCSc1cc(C)nc(SCC)c1NC(=O)CCCCSc1nc2ccccc2o1 [Compound No. 814, 5-(benzoxazol-2-ylthio)-N-[2,4-bis(ethylthio)-6-methyl-3-pyridyl]pentanamide]	122 to 123 °C
CCSc1cc(C)nc(SCC)c1NC(=O)CCCCCCSc1nc2ccccc2o1 [Compound No. 816, 7-(benzoxazol-2-ylthio)-N-[2,4-bis(ethylthio)-6-methyl-3-pyridyl]heptanamide]	103 to 105 °C
CCSc1cc(C)nc(SCC)c1NC(=O)CCCCCCCSc1nc2ccccc2o1 [Compound No. 817, 8-(benzoxazol-2-ylthio)-N-[2,4-bis(ethylthio)-6-methyl-3-pyridyl]octanamide]	82 to 84 °C
CCSc1cc(C)nc(SCC)c1NC(=O)CCCSc1nc2ccccc2s1 [Compound No. 823, 4-(benzothiazol-2-ylthio)-N-[2,4-bis(ethylthio)-6-methyl-3-pyridyl]butanamide]	119 to 120 °C
CCSc1cc(C)nc(SCC)c1NC(=O)CCCSc1nc2ccccc2[nH]1 [Compound No. 833, 4-(benzimidazol-2-ylthio)-N-[2,4-bis(ethylthio)-6-methyl-3-pyridyl]butanamide]	160 to 161 °C
CCSc1cc(C)nc(SCC)c1NC(=O)CCCCSc1nc2ccccc2[nH]1 [Compound No. 834, 5-(benzimidazol-2-ylthio)-N-[2,4-bis(ethylthio)-6-methyl-3-pyridyl]pentanamide]	163 to 165 °C
CCSc1cc(C)nc(SCC)c1NC(=O)CCCCCCSc1nc2ccccc2[nH]1 [Compound No. 836, 7-(benzimidazol-2-ylthio)-N-[2,4-bis(ethylthio)-6-methyl-3-pyridyl]heptanamide]	151 to 156 °C
CCSc1cc(C)nc(SCC)c1NC(=O)CCCCCCCSc1nc2ccccc2[nH]1 [Compound No. 837, 8-(benzoimidazol-2-ylthio)-N-[2,4-bis(ethylthio)-6-methyl-3-pyridyl]octanamide]	166 to 168 °C

Further lines, results first:

melting point	SMILES
121 to 123 °C	CSc1cc(C)nc(SC)c1NC(=O)CCCCSc1nc2ccccc2s1 [Compound No. 794, 5-(benzothiazol-2-ylthio)-N-(2,4-bis(methylthio)-6-methyl-3-pyridyl)pentanamide]
104 to 108 °C	CSc1cc(C)nc(SC)c1NC(=O)CCCCCCCSc1nc2ccccc2s1 [Compound No. 797, 8-(benzthiazol-2-ylthio)-N-[2,4-bis(methylthio)-6-methyl-3-pyridyl)octanamide]
102 to 104 °C	CCSc1cc(C)nc(SCC)c1NC(=O)CCCCSc1nc2ccccc2s1 [Compound No. 824, 5-(benzothiazol-2-ylthio)-N-[2,4-bis(ethylthio)-6-methyl-3-pyridyl]pentanamide]
114 to 116 °C	CCSc1cc(C)nc(SCC)c1NC(=O)CCCCCCSc1nc2ccccc2s1 [Compound No. 826, 7-(benzothiazol-2-ylthio)-N-[2,4-bis(ethylthio)-6-methyl-3-pyridyl]heptanamide]
94 to 96 °C	CCSc1cc(C)nc(SCC)c1NC(=O)CCCCCCCSc1nc2ccccc2s1 [Compound No. 827, 8-(benzothiazol-2-ylthio)-N-[2,4-bis(ethylthio)-6-methyl-3-pyridyl]octanamide]
129 to 130 °C	Cc1cc(SC(C)C)c(NC(=O)CCCCSc2nc3ccccc3o2)c(SC(C)C)n1 [Compound No. 844, 5-(benzoxazol-2-ylthio)-N-[2,4-bis(isopropylthio)-6-methyl-3-pyridyl]pentanamide]
76 to 78 °C	Cc1cc(SC(C)C)c(NC(=O)CCCCCCSc2nc3ccccc3o2)c(SC(C)C)n1 [Compound No. 846, 7-(benzoxazol-2-ylthio)-N-[2,4-bis(isopropylthio)-6-methyl-3-pyridyl]heptanamide]
117 to 118 °C	Cc1cc(SC(C)C)c(NC(=O)CSc2nc3ccccc3s2)c(SC(C)C)n1 [Compound No. 851, 2-(benzothiazol-2-ylthio)-N-[2,4-bis(isopropylthio)-6-methyl-3-pyridyl]acetamide]
116 to 117 °C	Cc1cc(SC(C)C)c(NC(=O)CCCSc2nc3ccccc3s2)c(SC(C)C)n1 [Compound No. 853, 4-(benzothiazol-2-ylthio)-N-[2,4-bis(isopropylthio)-6-methyl-3-pyridyl]butanamide]
107 to 109 °C	Cc1cc(SC(C)C)c(NC(=O)CCCCSc2nc3ccccc3s2)c(SC(C)C)n1 [Compound No. 854, 5-(benzothiazol-2-ylthio)-N-[2,4-bis(isopropylthio)-6-methyl-3-pyridyl]pentanamide]
84 to 86 °C	Cc1cc(SC(C)C)c(NC(=O)CCCCCSc2nc3ccccc3s2)c(SC(C)C)n1 [Compound No. 855, 6-(benzothiazol-2-ylthio)-N-[2,4-bis(isopropylthio)-6-methyl-3-pyridyl]hexanamide]
